Data as given in paper PMC11568336, “Biochemical properties of immobilized horseradish peroxidase on ceramic and its application in removal of azo dye” (Scientific Reports, 2024).

Tested on: T1, Horseradish peroxidase (HRP), soluble HRP
T1 construct: gene PRXC1A; free (soluble) enzyme
Assay: absorbance at […] nm, Lineweaver-Burk plot
Format: biochemical, Armoracia rusticana
Settings: soluble (free) enzyme; co-substrate H2O2 (8 mM in standard assay); 20 mM sodium acetate pH 6.0

- Km: 35.5 mM
Structure (SMILES): COc1ccccc1O [guaiacol]
